# Assay results taken from EP1769677B1, “METHOD OF IDENTIFYING THERAPEUTIC COMPOUNDS WHICH CAN BE USED FOR THE TREATMENT AND/OR PREVENTION OF INFECTIONS AND DISEASES CAUSED BY HUMAN HERPESVIRUSES” (Universidad Aut Noma de Madrid, priority 2004, dated 2005).
# Legend:
# human herpesviruses = assay: Survival with acyclovir given ad libitum in the drink (vertical transmission model); assay type: in vivo, mice; conditions: acyclovir ad libitum in drinking water, high dose (as printed, final daily dose 1.50 mg), from the day of the vaginal plug
# Description: Assuming that a mouse drinks about 3 ml a day, 2 working dilutions ([…] so that the final daily dose was 0.75 mg, and […] so that the final daily dose was 1.50 mg) were used.
# [1] = in vivo; cited from earlier work
# [2] = tested on: herpes simplex virus type 1 (HSV-1) of the KOS strain; assay: Neonate mortality after acyclovir treatment of HSV-1 infected mothers (vertical mother-progeny transmission model); assay type: in vivo, mice; conditions: neonates of HSV-1 infected mothers, 0.25 mg per dose three times a day, from five days before crossbreeding until birth
# Description: (§1) All the animals included in the experimental process were 14-week old female mice of the C57Bl/6 lineage. Between two and three adult mice were used per analysis group and between 13 and 25 neonates, depending on the availability of animals. The experiments were performed strictly following the Guidance on the Operation of Animals (Scientific Procedures, Act 1986), supervised by personnel of the Animal house of the Centro de Biologia Molecular Severo Ochoa. All the animals went through a quarantine period and were treated with strict precautions against contamination during inoculation and dissection. The animals were intraperitoneally infected with a dose 10^6 pfu of herpes simplex virus type 1 (HSV-1) of the KOS strain (provided by el Dr. L. Carrasco, Centro de Biologia Molecular Severo Ochoa, Universidad Autónoma of Madrid). […] The first group of mice was not given any treatment. […] Therefore the antiviral concentration administered per dose and mouse was 0.25 mg (10 mg/kg per mouse, far from the toxicity limit of 80 mg/kg cited above), with a total daily dose of 0.75 mg/day.
# After birth and sacrifice, the progeny survival rates and the mother and neonate viral loads were analyzed. The adult animals remained asymptomatic during the entire experimental process, suffering no mortality.
# [3] = tested on: herpes simplex virus type 1 (HSV-1) of the KOS strain; assay: Viral load in organs of mothers and progeny by quantitative PCR after acyclovir treatment of infected mothers; assay type: in vivo, mice
# Description: as §1, with “The experiments were performed strictly following the Guidance on the Operation of Animals (Scientific Procedures, Act 1986), supervised by personnel of the Animal house of the Centro de Biologia Molecular Severo Ochoa.” left out
# The dissected organs in the adult animals were the following: blood, ovaries, adrenal gland, spinal cord, brain, cerebellum and trigeminal ganglia. The entire brain was separated into three rough regions: midbrain, ventricles and cerebral cortex. In the neonates, the dissected organs were blood, spinal cord and encephalon. DNA was extracted using conventional methods (NucleoSpin®, Cat. K3053-2, ClonTech, USA). The viral load of the different organs was analyzed by means of quantitative PCR. […] Primers specific for the sequence of the viral polymerase (pol) gene were used to detect the virus (SEQ. ID. NO: 3 and SEQ. ID. NO: 4) (120 bp amplicon). The PCR conditions were one cycle of 95°C for 10 minutes, followed by 45 cycles at 95°C for 30 seconds, 55°C (for β-actin) or 60°C (for viral polymerase) for 30 seconds, and a last cycle of 72°C for 40 seconds. The virus concentration range used for optimizing the quantitative PCR standard curve was expressed as plaque forming units (pfu). For calibrating the β-actin gene, nanograms were used as the unit of this endogenous gene. The identity of the amplified products was checked by analysis of the denaturation curves, by gel electrophoresis and restriction analysis.
# [4] = oral acyclovir, daily dose 0.75 mg
smiles,measurement,setting,value
Nc1nc2c(ncn2COCCO)c(=O)[nH]1 [acyclovir],survival of the animals,human herpesviruses,higher
same,toxicity limit,[1],80 mg/kg
same,mortality,"[2]; oral acyclovir to mothers, none of the 17 animals",no mortality was observed
same,mortality rate,"[2]; subcutaneous acyclovir to mothers, 1 out of 25",4.0%
same,viral loads both in the mothers and in the progeny,"[3]; acyclovir daily dose of 0.75 mg, both administration routes (oral and subcutaneous), Figure 7",significant reduction
same,viral levels in all the analyzed organs of the descendants,"[3]; oral acyclovir to the mothers, daily dose 0.75 mg, blood, spinal cord, encephalon",almost complete elimination
same,virus levels in blood of the mothers,[3]; [4],virtually undetectable
same,virus levels in the trigeminal ganglia of the mothers,[3]; [4],virtually undetectable
same,levels of the virus in the progeny's CNS,"[3]; subcutaneous acyclovir to mothers, daily dose 0.75 mg, Figure 7B",considerably lower levels of the virus
same,levels of the virus in all the analyzed organs of the mother,"[3]; subcutaneous acyclovir, daily dose 0.75 mg, Figure 7A",considerably lower levels of the virus
